According to patent publication US20230398110A1, “COMPOSITIONS AND METHODS FOR TREATING NON-ALCOHOLIC STEATOHEPATITIS” (ASCENTAGE PHARMA (SUZHOU) CO., LTD., priority 2020, published 2023):

Tests used:
[1] = system: C57BL/6J mice induced with high-fat diet (HFD) and CCl4; assay: HFD/CCl4 NASH mouse model, liver histology (NAS score, fibrosis); type: in vivo
Protocol: Male C57BL/6J mice with an age of 18 weeks were purchased from GemPharmatech Co., Ltd (Nanjing, Jiangsu). Mice were first fed with high-fat diet (HFD) for 11 weeks to induced obesity. Carbon tetrachloride (25% CCl4, 0.5 μl/g) was then intraperitoneally injected twice weekly for 4 consecutive weeks, to induce liver damages, leading to inflammation, cell death and fibrosis. The day of the first carbon tetrachloride injection was dated as day 0. At day 7, the animals were randomized and treatment started. The test article administration and the animal numbers in each group are shown in the following experimental design Table 3.
All animals were euthanatized at day 28 to collect blood and liver samples for biochemical and histological analysis.
Liver tissue from animals in each group were analyzed for NAS scores.
(§1) Specifically, the scores assessed were: • 1) the unweighted sum of the steatosis (0-3); • 2) lobular inflammation (0-3); • 3) hepatocellular ballooning (0-2); and • 4) liver fibrosis score (0-4), after Sirius red staining.
Liver tissues of each group of animals were taken, and NAS scores were analyzed by hematoxylin-eosin (HE) staining, and liver fibrosis was analyzed by Sirius red staining.
After staining, the NAS scores of the prepared samples were evaluated. In hematoxylin-eosin stained sections, NAS scores were evaluated according to the degree of steatosis, inflammatory cell infiltration and […].
After staining, fibrosis of the liver was additionally evaluated. All sections stained with Sirius Red were scanned by an Aperio VERSA 200 Brightfield & Fluorescenc slice scanner. Two fields were randomly selected under a 5×field of view. The two fields covered 85% of the liver tissue area. Quantitative analysis to calculate the area of fibrosis deposition in the slices was performed.
(§2) Prism, version 6, (GraphPad Software Inc., San Diego, CA) was used for all statistical analysis and for graphic presentation.
After drug treatment for 21 days, animals were euthanatized to collect liver samples for pathological analysis.

[2] = system: rats with DEN-HFD-CHOL induced non-alcoholic steatohepatitis; assay: DEN-HFD-CHOL induced NASH rat model, liver histology (NAS score, fibrosis); type: in vivo; settings: 42 days; for NAS score (FIG. 3B) / ballooning (FIG. 3B) / steatosis, lobular inflammation and hepatocellular ballooning (HE-staining of liver tissue, FIG. 3A): Compound 1 10 and 30 mg/kg, GFT505 30 mg/kg
Description: Male SD rats, with an age of 10 days, were purchased from Vital River Co., Ltd (Beijing).
The rats were given a one-time intraperitoneal injection of diethylnitrosamine (DEN) two weeks after birth, and continued breast milk feeding for two weeks.
After four weeks, a total of 56 male rats were selected and divided into 7 groups according to animal weight. The rats were started on a high-fat, high-cholesterol diet (HFD-CHOL), with a feeding cycle of 12 weeks. Before intraperitoneal injection of DEN, 5 male rats were randomly selected for parallel feeding as a control cohort, which were fed a standard diet and not injected with DEN.
After 7 weeks of HFD-CHOL diet feeding, the animals were randomized and treatment with vehicle or the indicated compound was started. The test article administration and the animal numbers in each group are shown in the following experimental design Table 5.
The body weight of animals was measured at the day of the last administration (the end of the test). After the animal were fasted for 6 hours, all animals were euthanatized to collect blood and liver samples for biochemical and histological analysis.
Liver tissue from animals in each group were analyzed for NAS scores, the unweighted sum of the steatosis (0-3), lobular inflammation (0-3) and hepatocellular ballooning (0-2) scores, after HE-staining, and analyzed for liver fibrosis score (0-4) after Sirius red staining.
as §1, with “Liver tissue from animals in each group were analyzed for NAS scores using the methods disclosed above in Example 16. Specifically,” for “Specifically,”
as §2
After drug treatment for 42 days, animals were euthanatized to collect liver samples for pathological analysis.

Mcl-1 = Mcl-1 (Homo sapiens, UniProt Q07820); assay: FP saturation binding of fluorescent probe to Mcl-1; settings: 2 nM probe, read-out: Kd of Flu-BID to Mcl-1
Protocol: Fluorescence polarization values were measured using an Infinite M-1000 plate reader (Tecan U.S., Research Triangle Park, N.C.) in Microfluor 96-well, black, round-bottom plates (Thermo Scientific). […] Plates were mixed and incubated at room temperature for 1 hour with gentle shaking to assure equilibrium. […] Equilibrium dissociation constants (Kd) were then calculated by fitting the sigmoidal dose-dependent FP increases as a function of protein concentrations using Graphpad Prism 5.0 software (Graphpad Software, San Diego, Calif.).

[3] = Compound 1 50 mg/kg qd p.o., 21 days
[4] = Compound 1 10 and 30 mg/kg vs GFT505 30 mg/kg, qd p.o.

Sequence of Mcl-1 (Q07820 whole entry): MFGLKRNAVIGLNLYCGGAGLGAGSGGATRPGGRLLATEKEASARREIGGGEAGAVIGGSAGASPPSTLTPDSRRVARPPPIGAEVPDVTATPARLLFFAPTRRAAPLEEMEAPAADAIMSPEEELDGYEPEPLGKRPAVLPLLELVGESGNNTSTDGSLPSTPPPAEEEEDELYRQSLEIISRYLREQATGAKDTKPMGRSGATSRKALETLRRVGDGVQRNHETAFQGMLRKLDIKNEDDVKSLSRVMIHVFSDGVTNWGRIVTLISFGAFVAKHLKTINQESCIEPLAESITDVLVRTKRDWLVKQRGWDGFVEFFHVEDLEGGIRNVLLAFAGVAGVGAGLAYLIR

O=C(NS(=O)(=O)c1ccc(NC[C@H]2COCCO2)c([N+](=O)[O-])c1)c1ccc(N2CCN(CC3=C(c4ccc(Cl)cc4)CC4(CCC4)CC3)CC2)cc1Oc1cnc2[nH]ccc2c1 [Compound 1, (S)-N-((4-(((1,4-dioxan-2-yl)methyl)amino)-3-nitrophenyl)sulfonyl)-2-((1H-pyrrolo[2,3-b]pyridin-5-yl)oxy)-4-(4-((6-(4-chlorophenyl)spiro[3.5]non-6-en-7-yl)methyl)piperazin-1-yl)benzamide]
fibrosis (Sirius red staining, fibrosis score, FIG. 2A/2B) ([1]; Compound 1 50 mg/kg qd p.o. single agent, in comparison to OCA): modest effect | ballooning (NAS score analysis, FIG. 1B) [1, 3]: modest effects | steatosis (NAS score analysis, FIG. 1B) [1, 3]: reduced | steatosis, lobular inflammation and hepatocellular ballooning (HE-staining of liver tissue, FIG. 1A) ([1]; Compound 1 50 mg/kg qd p.o., OCA 30 mg/kg qd p.o., alone or combined, 21 days): alleviated | anti-inflammation effect compared with OCA alone ([1]; Compound 1 50 mg/kg vs OCA 30 mg/kg, qd p.o., 21 days): better anti-inflammation effect than OCA alone | inflammation (NAS score analysis, FIG. 1B) ([1]; Compound 1 50 mg/kg, OCA 30 mg/kg, qd p.o., 21 days): reduced | fibrosis (Sirius red staining, fibrosis score, FIG. 4A/4B) ([2]; Compound 1 10 and 30 mg/kg qd p.o.): modest alleviation | anti-inflammation effects compared with GFT505 [2, 4]: improved anti-inflammation effects | effects on steatosis compared with GFT505 [2, 4]: more modest effects | NAS score (FIG. 3B) ([2]; qd p.o.): significantly reduced | ballooning (FIG. 3B) ([2]; qd p.o.): completely abolished | steatosis, lobular inflammation and hepatocellular ballooning (HE-staining of liver tissue, FIG. 3A) ([2]; qd p.o.): alleviated

CSc1ccc(C(=O)/C=C/c2cc(C)c(OC(C)(C)C(=O)O)c(C)c2)cc1 [GFT505, elafibranor, reference compound]
NAS score (FIG. 3B) ([2]; qd p.o.): significantly reduced | ballooning (FIG. 3B) ([2]; qd p.o.): completely abolished | steatosis, lobular inflammation and hepatocellular ballooning (HE-staining of liver tissue, FIG. 3A) ([2]; qd p.o.): alleviated

Flu-BID: Fluorescein labeled BID (79-99) peptide, fluorescent probe in FP assay for Mcl-1
Kd (Mcl-1): 6.9 ± 0.9 nM
